According to publication PMC5218480 (PLoS ONE, 2017):

System: MV-4-11 cells
Experiment: Gene expression microarray analysis (Affymetrix PrimeView) and GSEA
Assay type: cell-based, human
Design: RFU PODN (11730768_x_at) / Fold change /veh PODN (11730768_x_at) / RFU LINC00158 (11744669_a_at) / Fold change /veh LINC00158 (11744669_a_at) / RFU DUSP10 (11751237_a_at) / Fold change /veh DUSP10 (11751237_a_at) / RFU ID3 (11757404_x_at) / Fold change /veh ID3 (11757404_x_at) / RFU PLEKHG5 (11737974_s_at) / Fold change /veh PLEKHG5 (11737974_s_at) / RFU LRRC4B (11730491_at) / Fold change /veh LRRC4B (11730491_at) / RFU GIMAP4 (11747438_a_at) / Fold change /veh GIMAP4 (11747438_a_at) / RFU KRT8 (11758183_x_at) / Fold change /veh KRT8 (11758183_x_at) / RFU CNN1 (11734310_a_at) / Fold change /veh CNN1 (11734310_a_at) / RFU VPS37D (11726825_at) / Fold change /veh VPS37D (11726825_at) / RFU C10orf10 (11716522_x_at) / Fold change /veh C10orf10 (11716522_x_at) / RFU KIR2DL2 /// KIR2DL4 /// KIR2DL5A /// KIR2DL5B /// KIR2DS1 /// KIR2DS2 /// KIR2DS3 /// KIR2DS4 /// KIR3DL3 /// KIR3DL3 /// KIR3DS1 (11738374_at) / Fold change /veh KIR2DL2 /// KIR2DL4 /// KIR2DL5A /// KIR2DL5B /// KIR2DS1 /// KIR2DS2 /// KIR2DS3 /// KIR2DS4 /// KIR3DL3 /// KIR3DL3 /// KIR3DS1 (11738374_at) / RFU C1QL1 (11718748_at) / Fold change /veh C1QL1 (11718748_at) / RFU TMPRSS4 (11747572_a_at) / Fold change /veh TMPRSS4 (11747572_a_at) / RFU HAMP (11756126_x_at) / Fold change /veh HAMP (11756126_x_at) / RFU RNFT2 (11725882_a_at) / Fold change /veh RNFT2 (11725882_a_at) / RFU NR4A2 (11747474_a_at) / Fold change /veh NR4A2 (11747474_a_at) / RFU ABCC12 (11746883_a_at) / Fold change /veh ABCC12 (11746883_a_at) / RFU TMEM136 (11760407_x_at) / Fold change /veh TMEM136 (11760407_x_at) / RFU CLDN22 /// WWC2 (11732394_at) / Fold change /veh CLDN22 /// WWC2 (11732394_at) / RFU HLA-DPB1 (11760878_x_at) / Fold change /veh HLA-DPB1 (11760878_x_at) / RFU SPINT1 (11716480_a_at) / Fold change /veh SPINT1 (11716480_a_at) / RFU GAP43 (11754022_s_at) / Fold change /veh GAP43 (11754022_s_at) / RFU A4GNT (11735810_at) / Fold change /veh A4GNT (11735810_at) / RFU PRB3 (11715151_x_at) / Fold change /veh PRB3 (11715151_x_at) / RFU TUBB4B (11761932_at) / Fold change /veh TUBB4B (11761932_at) / RFU CAPN14 (11732068_a_at) / Fold change /veh CAPN14 (11732068_a_at) / RFU TMCC2 (11721928_a_at) / Fold change /veh TMCC2 (11721928_a_at) / RFU IRGQ (11745062_a_at) / Fold change /veh IRGQ (11745062_a_at) / RFU FAM174B (11720279_a_at) / Fold change /veh FAM174B (11720279_a_at) / RFU TMPRSS4 (11748680_a_at) / Fold change /veh TMPRSS4 (11748680_a_at) / RFU FAM212B (11763350_a_at) / Fold change /veh FAM212B (11763350_a_at) / RFU PLEKHG5 (11743358_a_at) / Fold change /veh PLEKHG5 (11743358_a_at) / RFU ZSCAN30 (11745921_a_at) / Fold change /veh ZSCAN30 (11745921_a_at) / RFU CMKLR1 (11741424_a_at) / Fold change /veh CMKLR1 (11741424_a_at) / RFU LOC101060620 /// MAPK8IP1 (11723275_at) / Fold change /veh LOC101060620 /// MAPK8IP1 (11723275_at) / RFU SPTSSB (11747773_x_at) / Fold change /veh SPTSSB (11747773_x_at) / RFU PRSS12 (11739890_at) / Fold change /veh PRSS12 (11739890_at) / RFU BIN1 (11741810_x_at) / Fold change /veh BIN1 (11741810_x_at) / RFU WNT11 (11732464_a_at) / Fold change /veh WNT11 (11732464_a_at) / RFU C10orf10 (11716521_a_at) / Fold change /veh C10orf10 (11716521_a_at) / RFU C5orf56 (11738089_at) / Fold change /veh C5orf56 (11738089_at) / RFU CYB561 (11721691_x_at) / Fold change /veh CYB561 (11721691_x_at) / RFU ANKRD19P (11752326_a_at) / Fold change /veh ANKRD19P (11752326_a_at) / RFU OR2T12 /// OR2T33 /// OR2T8 (11738714_s_at) / Fold change /veh OR2T12 /// OR2T33 /// OR2T8 (11738714_s_at) / RFU VCAN (11748164_a_at) / Fold change /veh VCAN (11748164_a_at) / RFU JSRP1 (11732532_at) / Fold change /veh JSRP1 (11732532_at) / RFU KRTAP10-11 (11738290_x_at) / Fold change /veh KRTAP10-11 (11738290_x_at) / RFU MYO3A (11730013_a_at) / Fold change /veh MYO3A (11730013_a_at) / RFU EBF3 (11725865_a_at) / Fold change /veh EBF3 (11725865_a_at) / RFU CAMK2N1 (11719241_x_at) / Fold change /veh CAMK2N1 (11719241_x_at) / RFU C5orf56 (11738088_a_at) / Fold change /veh C5orf56 (11738088_a_at) / RFU OLFML3 (11715873_a_at) / Fold change /veh OLFML3 (11715873_a_at) / RFU LOC100653217 /// NTM (11731650_a_at) / Fold change /veh LOC100653217 /// NTM (11731650_a_at) / RFU MAPK11 (11762145_a_at) / Fold change /veh MAPK11 (11762145_a_at) / RFU FIZ1 (11724087_x_at) / Fold change /veh FIZ1 (11724087_x_at) / RFU OASL (11726364_x_at) / Fold change /veh OASL (11726364_x_at) / RFU SOX15 (11748057_x_at) / Fold change /veh SOX15 (11748057_x_at) / RFU CD79A (11719716_a_at) / Fold change /veh CD79A (11719716_a_at) / RFU HIST1H1D (11736915_at) / Fold change /veh HIST1H1D (11736915_at) / RFU CASKIN2 (11723855_a_at) / Fold change /veh CASKIN2 (11723855_a_at) / RFU LOC730098 (11760151_x_at) / Fold change /veh LOC730098 (11760151_x_at) / RFU OR4N2 (11742367_at) / Fold change /veh OR4N2 (11742367_at) / RFU PRRT2 (11749266_a_at) / Fold change /veh PRRT2 (11749266_a_at) / RFU SNX32 (11753110_a_at) / Fold change /veh SNX32 (11753110_a_at) / RFU CDHR5 (11726645_a_at) / Fold change /veh CDHR5 (11726645_a_at) / RFU RCAN1 (11760418_a_at) / Fold change /veh RCAN1 (11760418_a_at) / RFU FAM167A (11723789_a_at) / Fold change /veh FAM167A (11723789_a_at) / RFU FAM26E (11764081_at) / Fold change /veh FAM26E (11764081_at) / RFU ISYNA1 (11749810_s_at) / Fold change /veh ISYNA1 (11749810_s_at) / RFU ACY1 (11761880_at) / Fold change /veh ACY1 (11761880_at) / RFU 11764098_at / Fold change /veh 11764098_at / RFU SAMD14 (11745864_x_at) / Fold change /veh SAMD14 (11745864_x_at) / RFU NPB (11741838_a_at) / Fold change /veh NPB (11741838_a_at) / RFU TMPRSS6 (11731388_a_at) / Fold change /veh TMPRSS6 (11731388_a_at) / RFU KRTAP10-2 (11738614_at) / Fold change /veh KRTAP10-2 (11738614_at) / RFU ARHGAP8 /// PRR5-ARHGAP8 (11727945_x_at) / Fold change /veh ARHGAP8 /// PRR5-ARHGAP8 (11727945_x_at) / RFU KRTAP5-7 /// NADSYN1 (11734609_at) / Fold change /veh KRTAP5-7 /// NADSYN1 (11734609_at) / RFU RASL12 (11751679_a_at) / Fold change /veh RASL12 (11751679_a_at) / RFU CDKN2B (11736163_a_at) / Fold change /veh CDKN2B (11736163_a_at) / RFU PRF1 (11729649_at) / Fold change /veh PRF1 (11729649_at) / RFU, ZNF638 /// ZNF638-IT1 / Fold change vs veh, ZNF638 /// ZNF638-IT1 / RFU, PANK3 / Fold change vs veh, PANK3 / RFU, SH3YL1 / Fold change vs veh, SH3YL1 / RFU, ZEB2 / Fold change vs veh, ZEB2 / RFU, NRIP1 / Fold change vs veh, NRIP1 / RFU, PTTG1IP / Fold change vs veh, PTTG1IP / RFU, CAPN2 / Fold change vs veh, CAPN2 / RFU, MED14 / Fold change vs veh, MED14 / RFU, SNORA58 / Fold change vs veh, SNORA58 / RFU, C1orf63 / Fold change vs veh, C1orf63 / RFU, LRRFIP1 / Fold change vs veh, LRRFIP1 / RFU, NDUFAF7 / Fold change vs veh, NDUFAF7 / RFU, SLC12A2 / Fold change vs veh, SLC12A2 / RFU, IBTK / Fold change vs veh, IBTK / RFU, ESF1 / Fold change vs veh, ESF1 / Fold change vs veh, TMEM50B / RFU, TAOK1 / Fold change vs veh, TAOK1 / RFU, ACBD3 / Fold change vs veh, ACBD3 / RFU, TMA16 / Fold change vs veh, TMA16 / RFU, RWDD3 / Fold change vs veh, RWDD3 / RFU, BCAT1 / Fold change vs veh, BCAT1 / RFU, EDEM3 / Fold change vs veh, EDEM3 / RFU, TMEM33 / Fold change vs veh, TMEM33 / RFU, WDR75 / Fold change vs veh, WDR75 / RFU, AHCTF1 / Fold change vs veh, AHCTF1 / RFU, TFRC / Fold change vs veh, TFRC / RFU, ZDHHC17 / Fold change vs veh, ZDHHC17 / RFU, NOM1 / Fold change vs veh, NOM1 / RFU, ARL8B / Fold change vs veh, ARL8B / RFU, ZBTB11 / Fold change vs veh, ZBTB11 / RFU, TAMM41 / Fold change vs veh, TAMM41 / RFU, KIAA1704 /// LOC100996395 / Fold change vs veh, KIAA1704 /// LOC100996395 / RFU, ING1 / Fold change vs veh, ING1 / RFU, TRMT61B / Fold change vs veh, TRMT61B / RFU, FUBP3 / Fold change vs veh, FUBP3 / RFU, TP53 / Fold change vs veh, TP53 / RFU, TNKS2 / Fold change vs veh, TNKS2 / RFU, ZFP14 / Fold change vs veh, ZFP14 / RFU, ACTR2 / Fold change vs veh, ACTR2 / RFU, PPP3R1 / Fold change vs veh, PPP3R1 / RFU, PIK3R1 / Fold change vs veh, PIK3R1 / RFU, HNRNPA1 / Fold change vs veh, HNRNPA1 / RFU, RNF170 / Fold change vs veh, RNF170 / RFU, ZNF28 / Fold change vs veh, ZNF28 / RFU, RNGTT / Fold change vs veh, RNGTT / RFU, OGT / Fold change vs veh, OGT / RFU, BRD1 / Fold change vs veh, BRD1 / RFU, MARS / Fold change vs veh, MARS / RFU, ZNF655 / Fold change vs veh, ZNF655 / RFU, FAHD1 / Fold change vs veh, FAHD1 / RFU, BDP1 / Fold change vs veh, BDP1 / RFU, LRRCC1 / Fold change vs veh, LRRCC1 / RFU, ARID1A / Fold change vs veh, ARID1A / RFU, ZNF146 / Fold change vs veh, ZNF146 / RFU, ZNF330 / Fold change vs veh, ZNF330 / RFU, GPN3 / Fold change vs veh, GPN3 / RFU, C9orf123 / Fold change vs veh, C9orf123 / RFU, N4BP2L2 / Fold change vs veh, N4BP2L2 / RFU, ARFIP1 / Fold change vs veh, ARFIP1 / RFU, FAM179B / Fold change vs veh, FAM179B / RFU, BCL10 / Fold change vs veh, BCL10 / RFU, UHRF1BP1L / Fold change vs veh, UHRF1BP1L / RFU, BET1 / Fold change vs veh, BET1 / RFU, CNOT2 / Fold change vs veh, CNOT2 / RFU, ZNF268 / Fold change vs veh, ZNF268 / Fold change vs veh, ZNF507 / RFU, DGCR2 / Fold change vs veh, DGCR2 / RFU, WDSUB1 / Fold change vs veh, WDSUB1 / Fold change vs veh, HSP90B1 /// MIR3652 / RFU, ADSS / Fold change vs veh, ADSS / RFU, GK / Fold change vs veh, GK / RFU, ZNF148 / Fold change vs veh, ZNF148 / RFU, TAF9 / Fold change vs veh, TAF9 / RFU, SLC1A5 / Fold change vs veh, SLC1A5 / RFU, SLMO2 / Fold change vs veh, SLMO2 / RFU, ABCC4 / Fold change vs veh, ABCC4 / RFU, LOC101060439 /// RAP1B / Fold change vs veh, LOC101060439 /// RAP1B / RFU, RFX7 / Fold change vs veh, RFX7 / RFU, GTPBP10 / Fold change vs veh, GTPBP10 / RFU, CNEP1R1 / Fold change vs veh, CNEP1R1 / RFU, BIVM-ERCC5 /// ERCC5 / Fold change vs veh, BIVM-ERCC5 /// ERCC5 / RFU, ILF3 / Fold change vs veh, ILF3 / RFU 11762660_at / Fold change /veh 11762660_at / RFU VCAN (11757783_s_at) / Fold change /veh VCAN (11757783_s_at) / RFU DDX43 (11728927_at) / Fold change /veh DDX43 (11728927_at) / RFU KRT8 (11758188_x_at) / Fold change /veh KRT8 (11758188_x_at) / RFU NKD1 (11759106_at) / Fold change /veh NKD1 (11759106_at) / RFU SRD5A1 (11742802_a_at) / Fold change /veh SRD5A1 (11742802_a_at) / RFU TPSAB1 /// TPSB2 (11721975_s_at) / Fold change /veh TPSAB1 /// TPSB2 (11721975_s_at) / RFU GSTM3 (11746129_a_at) / Fold change /veh GSTM3 (11746129_a_at) / RFU IL23R (11737362_x_at) / Fold change /veh IL23R (11737362_x_at) / RFU TMEM51 (11727254_a_at) / Fold change /veh TMEM51 (11727254_a_at) / RFU PIWIL2 (11732686_x_at) / Fold change /veh PIWIL2 (11732686_x_at) / RFU ORM1 (11744905_x_at) / Fold change /veh ORM1 (11744905_x_at) / RFU CCDC152 (11743942_at) / Fold change /veh CCDC152 (11743942_at) / RFU ECM1 (11717891_a_at) / Fold change /veh ECM1 (11717891_a_at) / RFU IL23R (11748794_a_at) / Fold change /veh IL23R (11748794_a_at) / RFU TNFAIP8L3 (11732012_x_at) / Fold change /veh TNFAIP8L3 (11732012_x_at) / RFU MBOAT4 (11741988_at) / Fold change /veh MBOAT4 (11741988_at) / RFU 11764193_at / Fold change /veh 11764193_at / RFU TMEM53 (11763286_at) / Fold change /veh TMEM53 (11763286_at) / RFU MAGEB2 (11727129_at) / Fold change /veh MAGEB2 (11727129_at) / RFU TMEM200A (11744735_a_at) / Fold change /veh TMEM200A (11744735_a_at) / RFU CCDC152 (11751479_a_at) / Fold change /veh CCDC152 (11751479_a_at) / RFU FAM211A (11726209_a_at) / Fold change /veh FAM211A (11726209_a_at) / RFU RGS16 (11746705_a_at) / Fold change /veh RGS16 (11746705_a_at) / RFU VCAN (11755009_s_at) / Fold change /veh VCAN (11755009_s_at) / RFU RHOB (11743442_s_at) / Fold change /veh RHOB (11743442_s_at) / RFU RGS16 (11720943_a_at) / Fold change /veh RGS16 (11720943_a_at) / RFU RGS16 (11720944_at) / Fold change /veh RGS16 (11720944_at) / RFU, VPS4B / Fold change vs veh, VPS4B / RFU, CREB1 / Fold change vs veh, CREB1 / RFU, DNAJC13 / Fold change vs veh, DNAJC13 / RFU, GNAQ / Fold change vs veh, GNAQ / RFU, CDK5R1 / Fold change vs veh, CDK5R1 / RFU, ZRANB3 / Fold change vs veh, ZRANB3 / RFU, CUL4A / Fold change vs veh, CUL4A / RFU, CCNY / Fold change vs veh, CCNY / RFU, UFL1 / Fold change vs veh, UFL1 / RFU, COG3 / Fold change vs veh, COG3 / RFU, DIAPH2 / Fold change vs veh, DIAPH2 / RFU, SKA2 / Fold change vs veh, SKA2 / RFU, AFF3 / Fold change vs veh, AFF3 / RFU, LMF1 / Fold change vs veh, LMF1 / RFU, IPO11 / Fold change vs veh, IPO11 / RFU, DFFB / Fold change vs veh, DFFB / RFU, FOXP1 / Fold change vs veh, FOXP1 / RFU, CARD8 / Fold change vs veh, CARD8 / RFU, STRN3 / Fold change vs veh, STRN3 / RFU, ADK / Fold change vs veh, ADK / RFU, RASSF2 / Fold change vs veh, RASSF2 / RFU, WIPF1 / Fold change vs veh, WIPF1 / RFU, LARP1B / Fold change vs veh, LARP1B / RFU, RASA1 / Fold change vs veh, RASA1 / RFU, RB1 / Fold change vs veh, RB1 / RFU, PPFIA1 / Fold change vs veh, PPFIA1 / RFU, MAT2A / Fold change vs veh, MAT2A / RFU, CCT5 / Fold change vs veh, CCT5 / RFU, WDR92 / Fold change vs veh, WDR92 / RFU, CUX1 / Fold change vs veh, CUX1 / RFU, TTC7A / Fold change vs veh, TTC7A / RFU, TMEM135 / Fold change vs veh, TMEM135 / RFU, DEPTOR / Fold change vs veh, DEPTOR / RFU, CPM / Fold change vs veh, CPM / RFU, DNAJB6 / Fold change vs veh, DNAJB6 / RFU, CACNA2D3 / Fold change vs veh, CACNA2D3 / RFU, DTX4 / Fold change vs veh, DTX4 / RFU, TFCP2 / Fold change vs veh, TFCP2 / RFU, GMCL1 /// GMCL1P1 / Fold change vs veh, GMCL1 /// GMCL1P1 / RFU, AEBP2 / Fold change vs veh, AEBP2 / RFU, SNHG1 /// SNORD22 /// SNORD25 /// SNORD26 /// SNORD27 /// SNORD28 /// SNORD29 /// SNORD31 / Fold change vs veh, SNHG1 /// SNORD22 /// SNORD25 /// SNORD26 /// SNORD27 /// SNORD28 /// SNORD29 /// SNORD31 / Fold change (Aza/veh), C12orf56 (ProbeSet 11735607_a_at) / Fold change (ACY-1035/veh), C12orf56 (ProbeSet 11735607_a_at) / Fold change (Aza/veh), FGFR1OP (ProbeSet 11751329_s_at) / Fold change (ACY-1035/veh), FGFR1OP (ProbeSet 11751329_s_at) / Fold change (Aza/veh), VPS36 (ProbeSet 11739960_a_at) / Fold change (ACY-1035/veh), VPS36 (ProbeSet 11739960_a_at) / RFU SYPL1 (11715823_x_at) / Fold change /veh SYPL1 (11715823_x_at) / RFU IGFBP7 (11715501_s_at) / Fold change /veh IGFBP7 (11715501_s_at) / RFU REEP3 (11722064_at) / Fold change /veh REEP3 (11722064_at) / RFU IGLL1 (11728026_x_at) / Fold change /veh IGLL1 (11728026_x_at): dose or concentration left out as unconfirmed
Details: MV-4-11 cells, 48 hours

Nc1ccc(-c2cccs2)cc1NC(=O)c1ccc2c(c1)cc(C1CC1)n2CCN1CCOCC1 [ACY-1035]
RFU IGFBP7 (11715501_s_at): 134.15 RFU
